ChEMBL document CHEMBL5143704, “Discovery of 2,4-diarylaminopyrimidine derivatives bearing dithiocarbamate moiety as novel ALK inhibitors” (Bioorg Med Chem, 2022)

Assays:
HCT-116 = experiment: cells; conditions: Homo sapiens, HCT-116, 96 h
Description: Antiproliferative activity against ALK-negative human HCT-116 cells assessed as inhibition of cell growth incubated for 96 hrs by MTT assay

NCI-H2228 = experiment: cells; conditions: Homo sapiens, NCI-H2228, 96 h
Description: Antiproliferative activity against EML4-ALK positive human NCI-H2228 cells assessed as inhibition of cell growth incubated for 96 hrs by MTT assay

KARPAS-299 = experiment: cells; conditions: Homo sapiens, KARPAS-299, 96 h
Description: Antiproliferative activity against NPM-ALK positive human KARPAS-299 cells assessed as inhibition of cell growth incubated for 96 hrs by CCK-8 assay

A549 = experiment: cells; conditions: Homo sapiens, A549, 96 h
Description: Antiproliferative activity against ALK-negative human A549 cells assessed as inhibition of cell growth incubated for 96 hrs by MTT assay

[1] = biological target: ALK tyrosine kinase receptor (Homo sapiens, UniProt Q9UM73); experiment: Inhibition of wild type N-terminal GST tagged ALK cytoplasmic domain (1058 to 1620 end residues) (unknown origin) expressed in Sf21 cells incubated for 1 hr in presence of ATP
Sequence of ALK tyrosine kinase receptor (Q9UM73 whole entry, the tested form may be a part): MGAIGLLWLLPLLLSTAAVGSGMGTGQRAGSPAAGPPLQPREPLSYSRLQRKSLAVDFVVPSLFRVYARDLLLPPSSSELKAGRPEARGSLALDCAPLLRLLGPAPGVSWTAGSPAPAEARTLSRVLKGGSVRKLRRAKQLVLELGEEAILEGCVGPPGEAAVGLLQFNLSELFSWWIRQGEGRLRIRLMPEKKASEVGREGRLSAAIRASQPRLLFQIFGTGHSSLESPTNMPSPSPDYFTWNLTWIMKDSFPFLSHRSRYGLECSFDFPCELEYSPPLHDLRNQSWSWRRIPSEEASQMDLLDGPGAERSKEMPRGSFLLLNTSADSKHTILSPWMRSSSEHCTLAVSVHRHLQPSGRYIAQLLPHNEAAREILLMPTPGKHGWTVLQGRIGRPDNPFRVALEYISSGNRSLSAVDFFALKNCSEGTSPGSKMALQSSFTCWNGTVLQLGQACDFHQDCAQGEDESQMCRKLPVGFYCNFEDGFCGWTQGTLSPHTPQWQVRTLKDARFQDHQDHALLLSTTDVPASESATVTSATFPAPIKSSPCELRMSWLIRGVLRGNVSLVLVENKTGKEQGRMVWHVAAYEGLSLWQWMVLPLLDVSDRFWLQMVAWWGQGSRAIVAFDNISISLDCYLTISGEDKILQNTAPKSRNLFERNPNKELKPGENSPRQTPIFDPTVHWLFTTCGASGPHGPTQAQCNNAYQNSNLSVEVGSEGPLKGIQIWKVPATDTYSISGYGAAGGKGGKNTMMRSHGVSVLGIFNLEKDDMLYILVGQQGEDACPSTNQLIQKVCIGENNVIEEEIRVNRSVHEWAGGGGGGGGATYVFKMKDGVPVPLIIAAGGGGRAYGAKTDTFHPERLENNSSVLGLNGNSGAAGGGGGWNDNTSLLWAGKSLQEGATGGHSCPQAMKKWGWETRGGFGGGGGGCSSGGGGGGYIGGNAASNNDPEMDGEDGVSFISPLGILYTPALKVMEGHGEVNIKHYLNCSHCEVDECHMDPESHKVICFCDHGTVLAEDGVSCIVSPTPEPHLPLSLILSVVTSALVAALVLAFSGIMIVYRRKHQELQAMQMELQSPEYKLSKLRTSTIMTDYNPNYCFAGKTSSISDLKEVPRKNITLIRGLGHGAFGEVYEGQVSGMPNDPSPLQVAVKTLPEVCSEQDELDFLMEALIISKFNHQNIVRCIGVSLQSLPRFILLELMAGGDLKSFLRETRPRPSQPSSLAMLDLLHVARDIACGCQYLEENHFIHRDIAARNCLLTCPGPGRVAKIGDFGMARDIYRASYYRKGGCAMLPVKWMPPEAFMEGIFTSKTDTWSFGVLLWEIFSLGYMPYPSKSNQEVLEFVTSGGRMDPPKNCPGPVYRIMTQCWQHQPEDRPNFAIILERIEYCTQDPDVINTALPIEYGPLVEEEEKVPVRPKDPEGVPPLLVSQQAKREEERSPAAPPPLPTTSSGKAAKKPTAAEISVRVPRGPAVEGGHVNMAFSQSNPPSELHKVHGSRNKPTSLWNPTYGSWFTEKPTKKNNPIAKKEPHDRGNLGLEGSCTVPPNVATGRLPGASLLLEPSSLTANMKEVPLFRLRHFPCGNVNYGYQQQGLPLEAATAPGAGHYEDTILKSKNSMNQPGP

SMILES | IC50 (HCT-116) [nM] | IC50 (NCI-H2228) [nM] | IC50 (KARPAS-299) [nM] | IC50 (A549) [nM] | IC50 [1] [nM]
Cc1cc(Nc2ncc(Cl)c(Nc3ccccc3S(=O)(=O)C(C)C)n2)c(OC(C)C)cc1C1CCN(C(=O)SCC(=S)N2CCCCC2)CC1 | 3360 | 380 | 150 | > 10000 | 
Cc1cc(Nc2ncc(Cl)c(Nc3ccccc3S(=O)(=O)C(C)C)n2)c(OC(C)C)cc1C1CCN(C(=O)SCC(=S)N2CCOCC2)CC1 | 4950 | 650 | 120 | > 10000 | 
Cc1cc(Nc2ncc(Cl)c(Nc3ccccc3S(=O)(=O)C(C)C)n2)c(OC(C)C)cc1C1CCN(C(=S)SCC(=O)N2CCSCC2)CC1 | 3860 | 630 | 80 | > 10000 | 
Cc1cc(Nc2ncc(Cl)c(Nc3ccccc3S(=O)(=O)C(C)C)n2)c(OC(C)C)cc1C1CCN(C(=S)SCC(N)=O)CC1 | 8150 | 270 | 180 | > 10000 | 
Cc1cc(Nc2ncc(Cl)c(Nc3ccccc3S(=O)(=O)C(C)C)n2)c(OC(C)C)cc1C1CCN(C(=O)SCC(=S)N2CC(C)N(C)C(C)C2)CC1 (stereo not given) | 3960 | 210 | 100 | > 10000 | > 100
Cc1cc(Nc2ncc(Cl)c(Nc3ccccc3S(=O)(=O)C(C)C)n2)c(OC(C)C)cc1C1CCN(C(=S)SCC(=O)N(C)C)CC1 | 5930 | 1540 | 250 | > 10000 | 
Cc1cc(Nc2ncc(Cl)c(Nc3ccccc3S(=O)(=O)C(C)C)n2)c(OC(C)C)cc1C1CCN(C(=S)SCC(=O)N2CCCCC2)CC1 | 3330 | 1320 | 150 | > 10000 | 
Cc1cc(Nc2ncc(Cl)c(Nc3ccccc3S(=O)(=O)C(C)C)n2)c(OC(C)C)cc1C1CCN(C(=S)SCC(=O)N2CCC(C)CC2)CC1 | 5460 | 2030 | 310 | > 10000 | 
Cc1cc(Nc2ncc(Cl)c(Nc3ccccc3S(=O)(=O)C(C)C)n2)c(OC(C)C)cc1C1CCN(C(=S)SCC(=O)NC(C)C)CC1 | > 10000 | 360 | 140 | > 10000 | 
Cc1cc(Nc2ncc(Cl)c(Nc3ccccc3S(=O)(=O)C(C)C)n2)c(OC(C)C)cc1C1CCN(C(=S)SCCN2CCCC2)CC1 | 4670 | 280 | 220 | 1720 | 
Cc1cc(Nc2ncc(Cl)c(Nc3ccccc3S(=O)(=O)C(C)C)n2)c(OC(C)C)cc1C1CCN(C(=O)SCC(=S)N(C)CCN(C)C)CC1 | 6550 | 370 | 480 | > 10000 | 
Cc1cc(Nc2ncc(Cl)c(Nc3ccccc3S(=O)(=O)C(C)C)n2)c(OC(C)C)cc1C1CCN(C(=S)SCC(=O)N2CCOCC2)CC1 | > 10000 | 1600 | 100 | > 10000 | 
Cc1cc(Nc2ncc(Cl)c(Nc3ccccc3S(=O)(=O)C(C)C)n2)c(OC(C)C)cc1C1CCN(C(=O)SCC(=S)N2CCC[C@H]2CO)CC1 | 4890 | 220 | 110 | > 10000 | 
Cc1cc(Nc2ncc(Cl)c(Nc3ccccc3S(=O)(=O)C(C)C)n2)c(OC(C)C)cc1C1CCN(C(=S)SCC(=O)NC2CCCCC2)CC1 | 7830 | 2660 | 590 | > 10000 | 
CCN(CC)C(=O)CSC(=S)N1CCC(c2cc(OC(C)C)c(Nc3ncc(Cl)c(Nc4ccccc4S(=O)(=O)C(C)C)n3)cc2C)CC1 | 4740 | 860 | 270 | > 10000 | 
Cc1cc(Nc2ncc(Cl)c(Nc3ccccc3S(=O)(=O)C(C)C)n2)c(OC(C)C)cc1C1CCN(C(=S)SCC(=O)NC2CCCC2)CC1 | 3520 | 410 | 130 | > 10000 | 
Cc1cc(Nc2ncc(Cl)c(Nc3ccccc3S(=O)(=O)C(C)C)n2)c(OC(C)C)cc1C1CCN(C(=O)SCC(=S)N2CCN(S(C)(=O)=O)CC2)CC1 | 3540 | 160 | 340 | > 10000 | 
Cc1cc(Nc2ncc(Cl)c(Nc3ccccc3S(=O)(=O)C(C)C)n2)c(OC(C)C)cc1C1CCN(C(=S)SCC(=O)NC2CCC2)CC1 | 7030 | 450 | 140 | > 10000 | 
CCN(CC)CCCSC(=S)N1CCC(c2cc(OC(C)C)c(Nc3ncc(Cl)c(Nc4ccccc4S(=O)(=O)C(C)C)n3)cc2C)CC1 | > 10000 | 490 | 500 | > 10000 | > 100
Cc1cc(Nc2ncc(Cl)c(Nc3ccccc3S(=O)(=O)C(C)C)n2)c(OC(C)C)cc1C1CCN(C(=S)SCCN2CCOCC2)CC1 | 3780 | 170 | 320 | > 10000 | 
Cc1cc(Nc2ncc(Cl)c(Nc3ccccc3S(=O)(=O)C(C)C)n2)c(OC(C)C)cc1C1CCN(C(=O)SCC(=S)N2CCSCC2)CC1 | 5280 | 350 | 230 | > 10000 | 
Cc1cc(Nc2ncc(Cl)c(Nc3ccccc3S(=O)(=O)C(C)C)n2)c(OC(C)C)cc1C1CCN(C(=O)SCC(=S)N2CCN(C3CCCC3)CC2)CC1 | 5810 | 350 | 1700 | > 10000 | 

The next molecules have a lower IC50 (HCT-116) than those just listed; values first:

IC50 (HCT-116) [nM] | IC50 (NCI-H2228) [nM] | IC50 (KARPAS-299) [nM] | IC50 (A549) [nM] | IC50 [1] [nM] | SMILES
1070 | 180 | 110 | > 10000 |  | Cc1cc(Nc2ncc(Cl)c(Nc3ccccc3S(=O)(=O)C(C)C)n2)c(OC(C)C)cc1C1CCN(C(=S)SCCN(C)C)CC1
2730 | 850 | 230 | > 10000 |  | Cc1cc(Nc2ncc(Cl)c(Nc3ccccc3S(=O)(=O)C(C)C)n2)c(OC(C)C)cc1C1CCN(C(=O)SCC(=S)N(C)C)CC1
2840 | 160 | 210 | > 10000 | > 100 | Cc1cc(Nc2ncc(Cl)c(Nc3ccccc3S(=O)(=O)C(C)C)n2)c(OC(C)C)cc1C1CCN(C(=O)SCC(=S)N2CCNC(C)C2)CC1 (stereo not given)
2700 | 320 | 140 | > 10000 | > 100 | Cc1cc(Nc2ncc(Cl)c(Nc3ccccc3S(=O)(=O)C(C)C)n2)c(OC(C)C)cc1C1CCN(C(=O)SCC(=S)N2CCN(C)CC2)CC1
1070 | 30 |  |  |  | Cc1cc(Nc2ncc(Cl)c(Nc3ccccc3S(=O)(=O)C(C)C)n2)c(OC(C)C)cc1C1CCNCC1 [CERITINIB]
980 | 230 | 260 | > 10000 |  | CCN(CC)CCSC(=S)N1CCC(c2cc(OC(C)C)c(Nc3ncc(Cl)c(Nc4ccccc4S(=O)(=O)C(C)C)n3)cc2C)CC1
3170 | 1210 | 860 | > 10000 |  | Cc1cc(Nc2ncc(Cl)c(Nc3ccccc3S(=O)(=O)C(C)C)n2)c(OC(C)C)cc1C1CCN(C(=O)SCC(=S)N2CCCC2)CC1
2510 | 1230 | 440 | > 10000 |  | CCN(CC)C(=S)CSC(=O)N1CCC(c2cc(OC(C)C)c(Nc3ncc(Cl)c(Nc4ccccc4S(=O)(=O)C(C)C)n3)cc2C)CC1
1530 | 120 | 80 | > 10000 |  | Cc1cc(Nc2ncc(Cl)c(Nc3ccccc3S(=O)(=O)C(C)C)n2)c(OC(C)C)cc1C1CCN(C(=O)SCC(=S)N2CCN(CCO)CC2)CC1
2450 | 280 | 90 | > 10000 | > 100 | Cc1cc(Nc2ncc(Cl)c(Nc3ccccc3S(=O)(=O)C(C)C)n2)c(OC(C)C)cc1C1CCN(C(=S)SCCN2CCCCC2)CC1
2060 | 130 | 320 | > 10000 |  | CCN1CCN(C(=S)CSC(=O)N2CCC(c3cc(OC(C)C)c(Nc4ncc(Cl)c(Nc5ccccc5S(=O)(=O)C(C)C)n4)cc3C)CC2)CC1
2190 | 270 | 170 | > 10000 | > 100 | Cc1cc(Nc2ncc(Cl)c(Nc3ccccc3S(=O)(=O)C(C)C)n2)c(OC(C)C)cc1C1CCN(C(=S)SCCN2CCN(C)CC2)CC1
